Data on 20 compounds can be found in patent US11247990B1, “Bicyclic fused pyridine compounds as inhibitors of TAM kinases” (ARRAY BIOPHARMA INC., priority 2017, dated 2022).

Details in all cases: averaged IC50
Assay [1] addresses GST-tagged recombinant human TYRO3 kinase domain (Homo sapiens (Human), UniProt Q06418). Description: TYRO3 Enzyme Assay (LanthaScreen Eu Kinase Binding, TR-FRET). The procedure, abridged: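 LanthaScreen Eu binding (tracer displacement) format read by TR-FRET after 60 min at 22 °C. Emission ratio converted to percent of control; IC50 taken where a 4-parameter logistic fit crosses 50 POC.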
(In general: TR-FRET usually uses a lanthanide donor and a delayed reading to cut background.)

Assay [2] deals with His-tagged recombinant human MER cytoplasmic domain (Homo sapiens (Human), UniProt Q12866). Description: MER Enzyme Assay (LanthaScreen Eu Kinase Binding, TR-FRET). In outline:
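Percent of control, derived from ratiometric TR-FRET emission, was fitted to a 4-parameter logistic curve and IC50 taken at 50 POC. Binding was read after 60 min at 22 °C using Eu-based LanthaScreen technology and recombinant His-tagged MER cytoplasmic domain.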

Assay [3] deals with His-tagged recombinant human AXL cytoplasmic domain (Homo sapiens (Human), UniProt P30530). Description: AXL Enzyme Assay (LanthaScreen Eu Kinase Binding, TR-FRET). The procedure, abridged: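 Compound displacement measured by TR-FRET after 60 min at 22 °C, using Eu-based LanthaScreen binding technology. Ratiometric emission converted to percent of control, fitted to a 4-parameter logistic curve, with IC50 at 50 POC.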

Structures are written as SMILES.

His-tagged recombinant human AXL cytoplasmic domain, sequence (P30530 473-894): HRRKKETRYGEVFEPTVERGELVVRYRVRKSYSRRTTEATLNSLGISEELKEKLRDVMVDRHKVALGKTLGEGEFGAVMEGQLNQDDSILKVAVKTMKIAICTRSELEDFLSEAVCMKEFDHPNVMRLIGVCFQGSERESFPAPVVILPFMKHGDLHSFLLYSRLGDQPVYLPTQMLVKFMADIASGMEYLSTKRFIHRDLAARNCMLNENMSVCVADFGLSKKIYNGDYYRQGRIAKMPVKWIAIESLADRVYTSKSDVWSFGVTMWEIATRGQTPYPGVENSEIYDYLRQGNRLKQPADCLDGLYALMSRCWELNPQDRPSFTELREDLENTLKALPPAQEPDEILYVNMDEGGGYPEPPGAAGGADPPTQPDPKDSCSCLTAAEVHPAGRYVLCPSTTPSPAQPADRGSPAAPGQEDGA
His-tagged recombinant human MER cytoplasmic domain, sequence (Q12866 527-999): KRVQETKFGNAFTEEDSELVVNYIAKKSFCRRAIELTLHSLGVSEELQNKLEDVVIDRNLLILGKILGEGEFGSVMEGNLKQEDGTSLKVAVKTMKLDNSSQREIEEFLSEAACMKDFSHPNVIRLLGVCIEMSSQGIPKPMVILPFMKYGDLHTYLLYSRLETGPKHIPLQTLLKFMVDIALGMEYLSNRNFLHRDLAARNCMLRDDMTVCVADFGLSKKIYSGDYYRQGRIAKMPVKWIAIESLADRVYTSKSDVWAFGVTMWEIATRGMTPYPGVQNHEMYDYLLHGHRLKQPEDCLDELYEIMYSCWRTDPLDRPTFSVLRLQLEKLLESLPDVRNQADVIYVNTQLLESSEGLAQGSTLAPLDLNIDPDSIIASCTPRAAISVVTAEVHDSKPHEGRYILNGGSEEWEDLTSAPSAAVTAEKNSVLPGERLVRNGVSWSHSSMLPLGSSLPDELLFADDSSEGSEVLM
GST-tagged recombinant human TYRO3 kinase domain, sequence (Q06418 518-790): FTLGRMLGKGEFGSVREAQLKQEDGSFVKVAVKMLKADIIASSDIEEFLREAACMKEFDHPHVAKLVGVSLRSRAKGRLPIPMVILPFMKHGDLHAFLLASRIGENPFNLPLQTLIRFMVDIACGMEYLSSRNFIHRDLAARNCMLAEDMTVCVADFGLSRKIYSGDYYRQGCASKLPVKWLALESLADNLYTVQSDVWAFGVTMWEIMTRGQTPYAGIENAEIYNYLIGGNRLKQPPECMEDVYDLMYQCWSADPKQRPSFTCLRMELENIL

By IC50 is commonly meant the concentration at which inhibition is half-maximal. Regarding `CCNc1cc2c(cn1)c(-c1cnn([C@H]3CC[C@H](O)CC3)c1)nn2[C@H]1CC[C@@H](Oc2nccc(C(F)(F)F)c2F)CC1` [Example 272, (1R,4r)-4-(4-(6-(ethylamino)-1-((1s,4S)-4-((3-fluoro-4-(trifluoromethyl)pyridin-2-yl)oxy)cyclohexyl)-1H-pyrazolo[4,3-c]pyridin-3-yl)-1H-pyrazol-1-yl)cyclohexan-1-ol], the IC50 was 10 to 100 nM in assay [1], less than 10 nM in assay [2] and less than 10 nM in assay [3].

With `CCNc1cc2c(cn1)c(-c1cnn(C)c1)nn2[C@H]1CC[C@@H](Oc2cn(C)nc2C(F)(F)F)CC1` [Example 279, N-ethyl-3-(1-methyl-1H-pyrazol-4-yl)-1-((1s,4s)-4-((1-methyl-3-(trifluoromethyl)-1H-pyrazol-4-yl)oxy)cyclohexyl)-1H-pyrazolo[4,3-c]pyridin-6-amine], the IC50 in assay [1], in assay [2] and in assay [3] was less than 10 nM in each case.

Regarding `CCNc1cc2c(cn1)c(-c1cnn(C(C)(C)C#N)c1)nn2[C@H]1CC[C@@H](Oc2cn(C)nc2C(F)(F)F)CC1` [Example 280, 2-(4-(6-(ethylamino)-1-((1s,4s)-4-((1-methyl-3-(trifluoromethyl)-1H-pyrazol-4-yl)oxy)cyclohexyl)-1H-pyrazolo[4,3-c]pyridin-3-yl)-1H-pyrazol-1-yl)-2-methylpropanenitrile], the IC50 in assay [1], in assay [2] and in assay [3] was less than 10 nM in each case.

Turning to `CCNc1cc2c(cn1)c(-c1cnn(C[C@@H](O)CO)c1)nn2[C@H]1CC[C@@H](Oc2cn(C)nc2C(F)(F)F)CC1` [Example 283, ®-3-(4-(6-(ethylamino)-1-((1s,4S)-4-((1-methyl-3-(trifluoromethyl)-1H-pyrazol-4-yl)oxy)cyclohexyl)-1H-pyrazolo[4,3-c]pyridin-3-yl)-1H-pyrazol-1-yl)propane-1,2-diol], the IC50 in assay [1], in assay [2] and in assay [3] was less than 10 nM in each case.

Regarding `CNc1cc2c(cn1)c(-c1ccc(S(C)(=O)=O)cc1)nn2[C@H]1CC[C@@H](Oc2cn(C)nc2C(F)(F)F)CC1` [Example 284, N-methyl-1-((1s,4s)-4-((1-methyl-3-(trifluoromethyl)-1H-pyrazol-4-yl)oxy)cyclohexyl)-3-(4-(methylsulfonyl)phenyl)-1H-pyrazolo[4,3-c]pyridin-6-amine], the IC50 in assay [1], in assay [2] and in assay [3] was less than 10 nM each time.

Turning to `CNc1cc2c(cn1)c(-c1ccc(CN3CCN(C)CC3)cc1)nn2[C@H]1CC[C@@H](Oc2cn(C)nc2C(F)(F)F)CC1` [Example 285, N-methyl-1-((1s,4s)-4-((1-methyl-3-(trifluoromethyl)-1H-pyrazol-4-yl)oxy)cyclohexyl)-3-(4-((4-methylpiperazin-1-yl)methyl)phenyl)-1H-pyrazolo[4,3-c]pyridin-6-amine], the IC50 in assay [1], in assay [2] and in assay [3] was less than 10 nM throughout.

As to `CNc1cc2c(cn1)c(-c1ccc3c(c1)CN(C)C3=O)nn2[C@H]1CC[C@@H](Oc2cn(C)nc2C(F)(F)F)CC1` [Example 286, 2-methyl-5-(1-((1s,4s)-4-((1-methyl-3-(trifluoromethyl)-1H-pyrazol-4-yl)oxy)cyclohexyl)-6-(methylamino)-1H-pyrazolo[4,3-c]pyridin-3-yl)isoindolin-1-one], the IC50 in assay [1], in assay [2] and in assay [3] was less than 10 nM in each case.

Take `CCNc1cc2c(cn1)c(-c1ccc3c(c1)CNC3=O)nn2[C@H]1CC[C@@H](Oc2cn(C)nc2C(F)(F)F)CC1` [Example 287]: the half-inhibitory concentration (IC50) in assay [1], in assay [2] and in assay [3] was less than 10 nM each time.

Regarding `CCNc1cc2c(cn1)c(-c1ccc3c(c1)CN(C)C3=O)nn2[C@H]1CC[C@@H](Oc2cn(C)nc2C(F)(F)F)CC1` [Example 288, 5-(6-(ethylamino)-1-((1s,4s)-4((1-methyl-3-(trifluoromethyl)-1H-pyrazol-4-yl)oxy)cyclohexyl)-1H-pyrazolo[4,3-c]pyridin-3-yl)-2-methylisoindolin-1-one], the IC50 in assay [1], in assay [2] and in assay [3] was less than 10 nM each time.

Consider `CCNc1cc2c(cn1)c(-c1ccc(CN3CCN(C)CC3)cc1)nn2[C@H]1CC[C@@H](Oc2cn(C)nc2C(F)(F)F)CC1` [Example 289, N-ethyl-1-((1s,4s)-4-((1-methyl-3-(trifluoromethyl)-1H-pyrazol-4-yl)oxy)cyclohexyl)-3-(4-((4-methylpiperazin-1-yl)methyl)phenyl)-1H-pyrazolo[4,3-c]pyridin-6-amine], for which the IC50 in assay [1], in assay [2] and in assay [3] was less than 10 nM each time.

Consider `CCNc1cc2c(cn1)c(-c1ccc(S(C)(=O)=O)cc1)nn2[C@H]1CC[C@@H](Oc2cn(C)nc2C(F)(F)F)CC1` [Example 290, N-ethyl-1-((1s,4s)-4-((1-methyl-3-(trifluoromethyl)-1H-pyrazol-4-yl)oxy)cyclohexyl)-3-(4-(methylsulfonyl)phenyl)-1H-pyrazolo[4,3-c]pyridin-6-amine], for which the IC50 in assay [1], in assay [2] and in assay [3] was less than 10 nM throughout.

With `CCNc1cc2c(cn1)c(-c1ccc(CN3CCN(C)CC3)cc1)nn2[C@H]1CC[C@@H](Oc2cnn(C)c2C(F)(F)F)CC1` [Example 293, N-ethyl-1-((1s,4s)-4-((1-methyl-5-(trifluoromethyl)-1H-pyrazol-4-yl)oxy)cyclohexyl)-3-(4-((4-methylpiperazin-1-yl)methyl)phenyl)-1H-pyrazolo[4,3-c]pyridin-6-amine], the values for the IC50 in assay [1], in assay [2] and in assay [3] were 10 to 100 nM, less than 10 nM and less than 10 nM, respectively.

Turning to `CCNc1cc2c(cn1)c(-c1ccn(C)c(=O)c1)nn2[C@H]1CC[C@@H](Oc2nccc(C(F)(F)F)c2F)CC1` [Example 297, 4-(6-(ethylamino)-1-((1s,4s)-4-((3-fluoro-4-(trifluoromethyl)pyridin-2-yl)oxy)cyclohexyl)-1H-pyrazolo[4,3-c]pyridin-3-yl)-1-methylpyridin-2(1H)-one], the IC50 in assay [1] is 10 to 100 nM; in assay [2], less than 10 nM; in assay [3], less than 10 nM.

With `CCNc1cc2c(cn1)c(-c1ccc(=O)n(C)c1)nn2[C@H]1CC[C@@H](Oc2nccc(C(F)(F)F)c2F)CC1` [Example 298, 5-(6-(ethylamino)-1-((1s,4s)-4-((3-fluoro-4-(trifluoromethyl)pyridin-2-yl)oxy)cyclohexyl)-1H-pyrazolo[4,3-c]pyridin-3-yl)-1-methylpyridin-2(1H)-one], the IC50 in assay [1] was 10 to 100 nM; in assay [2] it was less than 10 nM; in assay [3], less than 10 nM.

In the case of `CCNc1cc2c(cn1)c(-c1cnn(C(C)(C)CO)c1)nn2[C@H]1CC[C@@H](Oc2nccc(C(F)(F)F)c2F)CC1` [Example 299, 2-(4-(6-(ethylamino)-1-((1s,4s)-4-((3-fluoro-4-(trifluoromethyl)pyridin-2-yl)oxy)cyclohexyl)-1H-pyrazolo[4,3-c]pyridin-3-yl)-1H-pyrazol-1-yl)-2-methylpropan-1-ol], the IC50 in assay [1] is 10 to 100 nM; in assay [2], less than 10 nM; in assay [3] it was less than 10 nM.

In the case of `CCNc1cc2c(cn1)c(-c1cnn(CC(C)(C)O)c1)nn2[C@H]1CC[C@@H](Oc2nccc(C(F)(F)F)c2F)CC1` [Example 300, 1-(4-(6-(ethylamino)-1-((1s,4s)-4-((3-fluoro-4-(trifluoromethyl)pyridin-2-yl)oxy)cyclohexyl)-1H-pyrazolo[4,3-c]pyridin-3-yl)-1H-pyrazol-1-yl)-2-methylpropan-2-ol], the results for the 50% inhibitory concentration (IC50) in assay [1], in assay [2] and in assay [3] were 10 to 100 nM, less than 10 nM and less than 10 nM, respectively.

Turning to `CCNc1cc2c(cn1)c(-c1cnc(C)o1)nn2[C@H]1CC[C@@H](Oc2nccc(C(F)(F)F)c2F)CC1` [Example 308, N-ethyl-1-((1s,4s)-4-((3-fluoro-4-(trifluoromethyl)pyridin-2-yl)oxy)cyclohexyl)-3-(2-methyloxazol-5-yl)-1H-pyrazolo[4,3-c]pyridin-6-amine], the IC50 is 100 to 1000 nM in assay [1], less than 10 nM in assay [2] and less than 10 nM in assay [3].

As for `CCNc1cc2c(cn1)c(-c1cnn(C)c1)nn2[C@H]1CC[C@@H](Oc2c[nH]nc2C(F)(F)F)CC1` [Example 311, N-ethyl-3-(1-methyl-1H-pyrazol-4-yl)-1-((1s,4s)-4-((3-(trifluoromethyl)-1H-pyrazol-4-yl)oxy)cyclohexyl)-1H-pyrazolo[4,3-c]pyridin-6-amine], the IC50 in assay [1], in assay [2] and in assay [3] was less than 10 nM in each case.

Consider `CCNc1cc2c(cn1)c(-c1cnn(C(C)(C)C#N)c1)nn2[C@H]1CC[C@@H](Oc2cn[nH]c2C(F)(F)F)CC1` [Example 312, 2-(4-(6-(ethylamino)-1-((1s,4s)-4-((5-(trifluoromethyl)-1H-pyrazol-4-yl)oxy)cyclohexyl)-1H-pyrazolo[4,3-c]pyridin-3-yl)-1H-pyrazol-1-yl)-2-methylpropanenitrile], for which the half-inhibitory concentration (IC50) in assay [1], in assay [2] and in assay [3] was less than 10 nM in each case.

`CCNc1cc2c(cn1)c(C1CCN(C)CC1)nn2[C@H]1CC[C@@H](Oc2cn[nH]c2C(F)(F)F)CC1` [Example 313, N-ethyl-3-(1-methylpiperidin-4-yl)-1-((1s,4s)-4-((5-(trifluoromethyl)-1H-pyrazol-4-yl)oxy)cyclohexyl)-1H-pyrazolo[4,3-c]pyridin-6-amine]: the IC50 in assay [1], in assay [2] and in assay [3] was less than 10 nM each time.
